# Assay results taken from patent publication US20150219624A1, “METHODS FOR IDENTIFYING ANTI-CANCER COMPOUNDS” (MEMORIAL SLOAN KETTERING CANCER CENTER, priority 2013, published 2015).
# Values joined by “and” are separate entries in the source; they are usually repeats but may differ in a detail not shown here. Equal entries are not always repeated.
# Experiment: In vivo toxicity studies (body and organ weights, hematology, clinical chemistry, histopathology)
# Conditions: for CHOL, % ChVh / Ca, % ChVh / Cl, % ChVh / GLUC, % ChVh / K, % ChVh / Na, % ChVh / Na/K, % ChVh / P, % ChVh / CHOL, Mean / Ca, Mean / Cl, Mean / GLUC, Mean / K, Mean / Na, Mean / P, Mean: 0.2 mg/kg Female
# Description: Toxicity studies. Eight week-old C57Bl/6NTac female mice were randomly assigned to either control or treatment groups. Each treatment group received one daily dose of test article through i.p. injection over 5 consecutive days. Toxicity was monitored by weight loss and daily clinical observation for the 14 days following test article administration. 24 hours after the last test article administration 4 mice in each group were sacrificed and clinical chemistry, hematology and tissue specific histopathology were done at autopsy. The remaining mice (n=2 per group) were kept under observation for an additional 13 days; at that point all mice were sacrificed and clinical chemistry, hematology and tissue specific histopathology were done at time of autopsy.
# D) KOPT-K1 xenograft studies.
# [1] = 0.2 mg/kg, female, Day 5, % change of mean vs vehicle
# [2] = 0.2 mg/kg, female, Day 5, fold change of mean vs vehicle
# [3] = 0.2 mg/kg, female, Day 5, group mean
# [4] = 0.2 mg/kg, female, Day 5, individual animals
substance,measurement,setting,value
(±)-CR-31-B,"CHOL, % ChVh","Day 5, change vs vehicle",0.0%
same,"Ca, % ChVh","Day 5, change vs vehicle",2.2%
same,"Cl, % ChVh","Day 5, change vs vehicle",0.6%
same,"GLUC, % ChVh","Day 5, change vs vehicle",1.8%
same,"K, % ChVh","Day 5, change vs vehicle",−4.5%
same,"Na, % ChVh","Day 5, change vs vehicle",−0.2%
same,"Na/K, % ChVh","Day 5, change vs vehicle",1.4%
same,"P, % ChVh","Day 5, change vs vehicle",−14.6%
same,"CHOL, Mean","Day 5, group mean, N 4",66.0 mg/dL
same,"Ca, Mean","Day 5, group mean, N 4",9.1 mg/dL
same,"Cl, Mean","Day 5, group mean, N 4",114.0 mEq/L
same,"GLUC, Mean","Day 5, group mean, N 4",297.3 mg/dL
same,"K, Mean","Day 5, group mean, N 4",4.2 mEq/L
same,"Na, Mean","Day 5, group mean, N 4",149.0 mEq/L
same,"P, Mean","Day 5, group mean, N 4",7.0 mg/dL
same,"CHOL, % ChVh","Day 19, change vs vehicle",−2.3%
same,"Ca, % ChVh","Day 19, change vs vehicle",−3.2%
same,"Cl, % ChVh","Day 19, change vs vehicle",−1.3%
same,"GLUC, % ChVh","Day 19, change vs vehicle",−7.9%
same,"K, % ChVh","Day 19, change vs vehicle",−9.5%
same,"Na, % ChVh","Day 19, change vs vehicle",0.0%
same,"Na/K, % ChVh","Day 19, change vs vehicle",12.9%
same,"P, % ChVh","Day 19, change vs vehicle",50.0%
same,"CHOL, Mean","Day 19, group mean, N 2",65.0 mg/dL
same,"Ca, Mean","Day 19, group mean, N 2",9.2 mg/dL
same,"Cl, Mean","Day 19, group mean, N 2",114.5 mEq/L
same,"GLUC, Mean","Day 19, group mean, N 2",240.5 mg/dL
same,"K, Mean","Day 19, group mean, N 2",3.8 mEq/L
same,"Na, Mean","Day 19, group mean, N 2",148.0 mEq/L
same,"P, Mean","Day 19, group mean, N 2",10.2 mg/dL
same,ALB % ChVh,[1],3.3%
same,BASO % % ChVh,[1],−72.7%
same,BASO (K/uL) % ChVh,[1],−100.0%
same,BUN % ChVh,[1],3.0%
same,Body Weight % ChVh,[1],−3.8%
same,CRTN % ChVh,[1],11.1%
same,EOS % % ChVh,[1],−70.0%
same,EOS (K/uL) % ChVh,[1],0.0%
same,GLOB % ChVh,[1],5.9%
same,HCT % % ChVh,[1],3.4%
same,HGB % ChVh,[1],4.4%
same,LYM % % ChVh,[1],−14.6%
same,LYM (K/uL) % ChVh,[1],−21.2%
same,Left Kidney (% body wt) % ChVh,[1],−10.5%
same,Left Kidney (gm) % ChVh,[1],−12.5%
same,Liver (% body wt) % ChVh,[1],2.1%
same,Liver (gm) % ChVh,[1],−1.6%
same,MCH % ChVh,[1],2.5%
same,MCHC % ChVh,[1],0.9%
same,MCV % ChVh,[1],1.4%
same,MONO % % ChVh,[1],21.2%
same,MONO (K/uL) % ChVh,[1],8.3%
same,MPV % ChVh,[1],−5.6%
same,NEUT % % ChVh,[1],97.8%
same,NEUT (K/uL) % ChVh,[1],87.2%
same,PLT % ChVh,[1],−29.0%
same,RBC % ChVh,[1],1.9%
same,RDW % % ChVh,[1],−0.6%
same,Right Kidney (% body wt) % ChVh,[1],−11.6%
same,Right Kidney (gm) % ChVh,[1],−15.4%
same,Spleen (% body wt) % ChVh,[1],17.6%
same,Spleen (gm) % ChVh,[1],13.6%
same,TBIL % ChVh,[1],0.0%
same,TP % ChVh,[1],4.3%
same,WBC % ChVh,[1],−7.7%
same,ALP FoldChVh,[2],1.0
same,ALT FoldChVh,[2],1.3
same,AST FoldChVh,[2],1.2
same,ALB,[3],3.1 g/dL
same,ALP,[3],124.3 U/L
same,ALT,[3],25.0 U/L
same,AST,[3],41.3 U/L
same,BASO,[3],0.00 K/uL
same,BASO %,[3],0.03%
same,BUN,[3],27.3 mg/d L
same,Body Weight,[3],16.680 gm
same,CRTN,[3],0.20 mg/dL
same,EOS,[3],0.01 K/uL
same,EOS %,[3],0.06%
same,GGT,[3],0.0 U/L
same,GLOB,[3],1.8 g/dL
same,HCT %,[3],45.6%
same,HGB,[3],13.7 g/dL
same,LYM,[3],4.31 K/uL
same,LYM %,[3],72.97%
same,MCH,[3],15.3 pg
same,MCHC,[3],30.0 g/dL
same,MCV,[3],50.9 fL
same,MONO,[3],0.13 K/uL
same,MONO %,[3],2.17%
same,MPV,[3],4.3 fL
same,NEUT,[3],1.46 K/uL
same,NEUT %,[3],24.77%
same,PLT,[3],725.8 K/uL
same,RBC,[3],8.96 M/uL
same,RDW %,[3],15.8%
same,TBIL,[3],0.18 mg/d L
same,TP,[3],4.9 g/dL
same,WBC,[3],5.91 K/uL
same,ALB,[4],3.3 g/dL and 3.0 g/dL and 2.9 g/dL and 3.1 g/dL
same,ALP,[4],116 U/L and 114 U/L and 123 U/L and 144 U/L
same,ALT,[4],26 U/L and 20 U/L (2×) and 34 U/L
same,AST,[4],51 U/L and 35 U/L (2×) and 44 U/L
same,BASO,[4],0.00 K/uL
same,BASO %,[4],0.07% and 0.04% and 0.00% (2×)
same,BUN,[4],27 mg/d L (2×) and 26 mg/d L and 29 mg/d L
same,Body Weight,[4],15.962 gm and 17.217 gm and 17.463 gm and 16.078 gm
same,CHOL,[4],68 mg/dL and 66 mg/dL (2×) and 64 mg/dL
same,CRTN,[4],0.2 mg/dL
same,Ca,[4],8.9 mg/dL and 9.0 mg/dL and 9.3 mg/dL (2×)
same,Cl,[4],116 mEq/L and 113 mEq/L (2×) and 114 mEq/L
same,EOS,[4],0.00 K/uL (2×) and 0.01 K/uL (2×)
same,EOS %,[4],0.01% and 0.14% and 0.00% and 0.10%
same,GGT,[4],0 U/L
same,GLOB,[4],1.8 g/dL (3×) and 1.9 g/dL
same,GLUC,[4],270 mg/dL and 335 mg/dL and 261 mg/dL and 323 mg/dL
same,HCT %,[4],48.3% and 45.1% and 43.9% and 45.0%
same,HGB,[4],14.3 g/dL and 13.8 g/dL and 13.0 g/dL and 13.5 g/dL
same,K,[4],4.6 mEq/L and 4.0 mEq/L and 4.4 mEq/L and 3.9 mEq/L
same,LYM,[4],3.64 K/uL and 4.96 K/uL and 3.49 K/uL and 5.13 K/uL
same,LYM %,[4],76.21% and 71.86% and 70.06% and 73.76%
same,Left Kidney,[4],0.108 gm and 0.133 gm and 0.138 gm and 0.125 gm and 0.75 % body wt and 0.77 % body wt and 0.79 % body wt and 0.78 % body wt
same,Liver,[4],0.807 gm and 0.969 gm and 0.914 gm and 0.843 gm and 5.06 % body wt and 5.63 % body wt and 5.23 % body wt and 5.24 % body wt
same,MCH,[4],15.4 Pg (2×) and 15.0 Pg and 15.2 Pg
same,MCHC,[4],29.6 g/dL (2×) and 30.6 g/dL and 30.0 g/dL
same,MCV,[4],51.9 fL and 50.4 fL and 50.5 fL and 50.6 fL
same,MONO,[4],0.08 K/uL and 0.24 K/uL and 0.09 K/uL and 0.12 K/uL
same,MONO %,[4],1.77% and 3.45% and 1.74% and 1.70%
same,MPV,[4],4.3 fL (3×) and 4.1 fL
